Assay [1] deals with Human CB1R (Cannabinoid receptor 1) (Homo sapiens, UniProt P21554). As to the kind of experiment: CB-1 in vitro cAMP (HTRF) assay. It counts as cell-based. The following applies: HEK cells, cAMP HTRF, 250 nM forskolin; mean where tested more than once; read-out: CB1 HEK_cAMP EC50. From the text:
(§1) CB1 and CB2 receptors are Gi-coupled GPCR. Activation of CB1 and CB2 receptors results in a decrease in cAMP production. An inverse agonist of the CB1 or CB2 receptor results in the opposite effect, an increase of cAMP production. The principle of this assay is based on HTRF® technology (Homogeneous Time-Resolved Fluorescence). The method is a competitive immunoassay between native cAMP produced by cells and the cAMP labeled with the fluorophore d2. The tracer binding is quantified by a Mab anti-cAMP labeled with Eu3+TBP-NHS Cryptate (supplied as part of the assay kit). The specific signal (i.e. energy transfer) is inversely proportional to the concentration of cAMP in the standard or sample.
Human CB1R (Cannabinoid receptor 1) was stably transfected in HEK-293 cells (DiscoveRx, cat: 93-0200C1). Human CB2R (Cannabinoid receptor 2) was stably transfected in HEK-293 cells (DiscoveRx, cat: 93-0201C1).
One day prior to experiments media was warmed to 37° C. and the cryo-stored cells were thawed in a 37° C. water bath. The cells were then added to media (10× volume) and the mixture was centrifuged at 1000 RPM for 5 min. The supernate was removed and the cells were re-suspended in media. A sample of the cell suspension was evaluated on a Cedex XS automated cell counter (Innovatis Systems) to determine viable cells/ml. Additional media was added to the cells to achieve a final cell density of 4E5 cells/mL. […] Cells were removed from Row P (location of cAMP standards). […] The cell plates were lidded and stored for 15 minutes in a hood, then transferred to an incubator (37° C., 5% CO2, 95% humidity) overnight.
Test compounds (60 μL, 10 mM) were added to Column 1 and 13 (A1 through N1 and A13 through L13). Test compounds were serially diluted 1/3 by transferring and mixing 20 μl sample with 40 μL DMSO.
DMSO (40 μL) was added to wells of 384 well V bottom polystyrene plate: O2 through O11, M14 through M23, N14 through N23, and O14 through O23. […] The control was serially diluted 1/3 by transferring and mixing 20 μl sample with 40 μL DMSO. This process resulted 11 doses per control, 10 mM to 0.5 μM.
Cells plated the day prior to the assay in clear bottom plates were viewed on an inverse microscope to ensure confluency in the range of 60-75%.
A FLEXDROP (Perkin Elmer) was cleaned with ethanol then water, and primed with Buffer 2. A 384 well V bottom polypropylene plate containing d2 labelled cAMP and a second 384 well V bottom polypropylene plate containing anti-cAMP was prepared (50 μl per well). Media as “dumped” from the cell plate and 30 μL Buffer 1 was added to each well using a Multidrop. The content of the cell plate was again “dumped” and 10 μL Buffer 2 was added to each well using a Flexdrop. […] The cell plate was mixed (Speed 6, Lab-Line Instruments Titer Plate Shaker) and centrifuged (1000 RPMs, 1 min). […] The cell plate was again mixed (speed 6) and centrifuged (1000 RPMs, 1 min). The cell plate was incubated for 30 minutes at room temperature (˜27° C.). The contents of row P were removed and the cAMP standard dilutions were added in duplicate to Row P (P1-12 and P13-24). After incubation, 6 μL d2 labelled cAMP and 6 μL of Anti-cAMP were added to all wells of the cell plate using a BioMek FX (Beckman Coulter). The cell plate was again mixed (speed 6) and centrifuged (1000 RPMs, 1 min) and was incubated for 60 minutes in the dark at room Temp (˜27° C.).
After this final incubation, the cell plate was read in HTRF mode (fluorescence at 665 nm and 620 nm) on an Envision plate Reader (Perkin Elmer). The Envision reader outputs a ratio of channel 1/channel 2 fluorescence×10,000 (Normalized signal (NS)). Amount of cAMP in nM was calculated for each well (based on NS) from a cAMP standard curve located on each plate (at P1-12 and P13-24). EC50 values were determined from a 4-point fit (Hill equation) of a single 11-point compound dosing. Hill slope was fixed at 1.0.
A general note: Time-resolved FRET reads energy transfer from a long-lived donor to a nearby acceptor.

For assay [2], the target named is Human CB2R (Cannabinoid receptor 2) (Homo sapiens, UniProt P34972). As to the kind of experiment: CB-2 in vitro cAMP (HTRF) assay. The format is cell-based. The following applies: HEK cells, cAMP HTRF, 250 nM forskolin; mean where tested more than once; read-out: CB2 HEK_cAMP EC50.
Human CB2R (Cannabinoid receptor 2), sequence (P34972 whole entry): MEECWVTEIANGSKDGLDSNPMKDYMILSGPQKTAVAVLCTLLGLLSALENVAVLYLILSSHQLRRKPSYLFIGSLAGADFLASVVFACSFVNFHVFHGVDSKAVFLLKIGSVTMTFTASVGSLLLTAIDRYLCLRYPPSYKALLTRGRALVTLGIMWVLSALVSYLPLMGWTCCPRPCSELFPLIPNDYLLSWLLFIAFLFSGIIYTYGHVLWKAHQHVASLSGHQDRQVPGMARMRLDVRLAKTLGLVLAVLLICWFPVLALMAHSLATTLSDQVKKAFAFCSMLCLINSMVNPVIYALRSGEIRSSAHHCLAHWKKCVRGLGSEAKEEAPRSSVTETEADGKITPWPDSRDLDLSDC
Source text: as §1
Human CB1R (Cannabinoid receptor 1) was stably transfected in HEK-293 cells (DiscoveRx, cat: 93-0200C1). Human CB2R (Cannabinoid receptor 2) was stably transfected in HEK-293 cells (DiscoveRx, cat: 93-0201C1). Cell cultures were maintained in media: DMEM (Invitrogen Cat#12430-054) supplemented with 10% HI FBS (Invitrogen Cat#16140-071), 1% L-glutamine (Invitrogen Cat#25030-081), 0.2 mg/ml Hygromycin B (Invitrogen Cat#10687-010), 600 μg/mL G418 (Invitrogen Cat#10131-035), and 1× Penn/Strep (Invitrogen 15140-122). After cell expansion, aliquots were cryo-stored in media containing 5% DMSO (Pierce Cat#20684).
One day prior to experiments media was warmed to 37° C. and the cryo-stored cells were thawed in a 37° C. water bath. The cells were then added to media (10× volume) and the mixture was centrifuged at 1000 RPM for 5 min. The supernate was removed and the cells were re-suspended in media. A sample of the cell suspension was evaluated on a Cedex XS automated cell counter (Innovatis Systems) to determine viable cells/ml. Additional media was added to the cells to achieve a final cell density of 4E5 cells/mL. The cells were then plated into 384 well PDL white solid bottom plates (Greiner, Cat#781945) at 20 μL per well using a Multidrop (Thermo Scientific). Cells were removed from Row P (location of cAMP standards). Two columns of cells were plated into a clear bottom 384 well PDL coated plate (Greiner, Cat#781944) to view confluence the day of the assay. The cell plates were lidded and stored for 15 minutes in a hood, then transferred to an incubator (37° C., 5% CO2, 95% humidity) overnight.
DMSO was added to all wells of 384 well V bottom polystyrene plate (Greiner, Cat#781280) except to columns 1 and 13, rows O and P and wells M13-M23 and N13-N23. Test compounds (60 μL, 10 mM) were added to Column 1 and 13 (A1 through N1 and A13 through L13). Test compounds were serially diluted 1/3 by transferring and mixing 20 μl sample with 40 μL DMSO.
DMSO (40 μL) was added to wells of 384 well V bottom polystyrene plate: O2 through O11, M14 through M23, N14 through N23, and O14 through O23. AM630 (also known as [6-iodo-2-methyl-1-[2-(4-morpholinyl)ethyl]-1H-indol-3-yl](4-methoxyphenyl)-methanone, Cayman Chemical, Cat#10006974) (60 μL, 10 mM) was added to O1; and 1-(2,4-dichlorophenyl)-7-[(4-fluorophenyl)methylene]-4,5,6,7-tetrahydro-N-1-piperidinyl-1H-benzimidazole-3-carboxamide (60 μL, 10 mM) was added to N13. The control was serially diluted 1/3 by transferring and mixing 20 μl sample with 40 μL DMSO. This process resulted 11 doses per control, 10 mM to […].
Cells plated the day prior to the assay in clear bottom plates were viewed on an inverse microscope to ensure confluency in the range of 60-75%. […]

Bounds are passed on as bounds.

Human CB1R (Cannabinoid receptor 1), sequence (P21554 whole entry): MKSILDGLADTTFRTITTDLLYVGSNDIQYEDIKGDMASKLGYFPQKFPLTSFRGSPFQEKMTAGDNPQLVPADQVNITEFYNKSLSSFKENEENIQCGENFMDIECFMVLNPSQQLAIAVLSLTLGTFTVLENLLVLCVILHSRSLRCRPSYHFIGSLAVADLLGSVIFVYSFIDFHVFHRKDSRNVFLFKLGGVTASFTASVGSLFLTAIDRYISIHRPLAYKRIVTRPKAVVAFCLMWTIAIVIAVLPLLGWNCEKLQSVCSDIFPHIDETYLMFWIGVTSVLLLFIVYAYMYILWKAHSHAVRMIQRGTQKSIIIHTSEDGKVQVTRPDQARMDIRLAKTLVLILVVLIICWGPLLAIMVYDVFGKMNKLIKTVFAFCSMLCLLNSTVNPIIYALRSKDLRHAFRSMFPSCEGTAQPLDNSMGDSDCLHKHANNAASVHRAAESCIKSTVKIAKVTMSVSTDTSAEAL

As usually defined, the EC50 is the concentration giving half of the maximal effect. Take `Nc1cccc(S(=O)(=O)N2CCC(n3c(C4CC4)nc4ccc(C(c5ccc(Cl)cc5)c5ccc(Cl)cc5)cc43)CC2)c1` [Example 52]: the 50% effective concentration (EC50) in assay [1] was 9.2 nM; in assay [2], above 10000 nM.
Regarding `O=S(=O)(c1ccc(CO)o1)N1CCC(n2c(C3CC3)nc3ccc(C(c4ccc(Cl)cc4)c4ccc(Cl)cc4)cc32)CC1` [Example 55], the values for the concentration for a half-maximal effect (EC50) in assay [1] and in assay [2] were 12.3 nM and 2740 nM, respectively.
On to `CC(c1cccc(O)c1)N1CCC(n2c(C3CC3)nc3ccc(C(c4ccc(Cl)cc4)c4ccc(Cl)cc4)cc32)CC1` (stereo not drawn) [Example 56], for which the 50% effective concentration (EC50) in assay [1] is 19.3 nM; in assay [2], above 10000 nM.
The corresponding values for `CC(c1cc(C(=O)O)ccn1)N1CCC(n2c(C3CC3)nc3ccc(C(c4ccc(Cl)cc4)c4ccc(Cl)cc4)cc32)CC1` (stereo not drawn) [Example 59] are 3.8 nM and above 21000 nM.
In the case of `O=C(Oc1ccccc1)N1CCC(n2c(C3CC3)nc3ccc(C(c4ccc(Cl)cc4)c4ccc(Cl)cc4)cc32)CC1` [Example 61], the 50% effective concentration (EC50) in assay [1] was 19 nM; in assay [2] it was above 21000 nM.
As to `O=C(O)CN1CCC(n2c(C3CC3)nc3ccc(C(c4ccc(Cl)cc4)c4ccc(Cl)cc4)cc32)CC1` [Example 63], the EC50 in assay [1] was above 10000 nM; in assay [2], above 21000 nM.
The corresponding values for `COC(=O)CN1CCC(n2c(C3CC3)nc3ccc(C(c4ccc(Cl)cc4)c4ccc(Cl)cc4)cc32)CC1` [Example 64] are 2.6 nM and 2350 nM.
The corresponding values for `O=C(OCc1ccccc1)N1CCC(n2c(C3CC3)nc3ccc(C(c4ccc(Cl)cc4)c4ccc(Cl)cc4)cc32)CC1` [Example 69] are 8.6 nM and 1210 nM.
Turning to `O=C(NCCO)c1cccc(CN2CCC(n3c(C4CC4)nc4ccc(C(c5ccc(Cl)cc5)c5ccc(Cl)cc5)cc43)CC2)c1` [Example 70], the concentration for a half-maximal effect (EC50) in assay [1] was 8.3 nM; in assay [2], 5820 nM.
The corresponding values for `O=C(OC1CCCC1)N1CCC(n2c(C3CC3)nc3ccc(C(c4ccc(Cl)cc4)c4ccc(Cl)cc4)cc32)CC1` [Example 71] are 27.4 nM and 4880 nM.
The corresponding values for `CCNC(=O)N1CCC(n2c(C3CC3)nc3ccc(C(c4ccc(Cl)cc4)c4ccc(Cl)cc4)cc32)CC1` [Example 73] are 18.5 nM and 5250 nM.
With `O=C(NC1CCCC1)N1CCC(n2c(C3CC3)nc3ccc(C(c4ccc(Cl)cc4)c4ccc(Cl)cc4)cc32)CC1` [Example 74], the EC50 stood at 70.6 nM in assay [1] and 5390 nM in assay [2].
The corresponding values for `O=C(NCc1ccccc1)N1CCC(n2c(C3CC3)nc3ccc(C(c4ccc(Cl)cc4)c4ccc(Cl)cc4)cc32)CC1` [Example 75] are 35.7 nM and 1150 nM.
With `C#CCN1CCC(n2c(C3CC3)nc3ccc(C(c4ccc(Cl)cc4)c4ccc(Cl)cc4)cc32)CC1` [Example 76], the figures for the EC50 in assay [1] and in assay [2] were 6.7 nM and 2060 nM, respectively.
The corresponding values for `O=C(O)CCc1nc2ccc(C(c3ccc(Cl)cc3)c3ccc(Cl)cc3)cc2n1C1CCN(S(=O)(=O)C(F)(F)F)CC1` [Example 78] are 151 nM and above 21000 nM.
With `O=C(O)c1cccc(CN2CCC(n3c(C4CC4)nc4ccc(C(c5ccc(Cl)cc5)c5ccc(Cl)cc5)cc43)CC2)c1O` [Example 79], the concentration giving a half-maximal response (EC50) was 32.6 nM in assay [1] and 5090 nM in assay [2].
The corresponding values for `O=C(O)c1ccc(C(F)(F)F)c(CN2CCC(n3c(C4CC4)nc4ccc(C(c5ccc(Cl)cc5)c5ccc(Cl)cc5)cc43)CC2)c1` [Example 80] are 86.6 nM and 11400 nM.
The corresponding values for `O=C(O)c1cc(CN2CCC(n3c(C4CC4)nc4ccc(C(c5ccc(Cl)cc5)c5ccc(Cl)cc5)cc43)CC2)ccc1O` [Example 81] are 14.1 nM and 3200 nM.
The corresponding values for `O=C(O)c1ccc(O)c(CN2CCC(n3c(C4CC4)nc4ccc(C(c5ccc(Cl)cc5)c5ccc(Cl)cc5)cc43)CC2)c1` [Example 82] are 995 nM and above 42000 nM.
For `O=C(O)c1cc(CN2CCC(n3c(C4CC4)nc4ccc(C(c5ccc(Cl)cc5)c5ccc(Cl)cc5)cc43)CC2)ccn1` [Example 83], the EC50 in assay [1] stood at 42.6 nM; in assay [2], 11300 nM.
The corresponding values for `FC(F)(F)c1ccccc1CN1CCC(n2c(C3CC3)nc3ccc(C(c4ccc(Cl)cc4)c4ccc(Cl)cc4)cc32)CC1` [Example 84] are 67.7 nM and above 10000 nM.
Consider `O=C(O)c1cccc(CN2CCC(n3c(C4CC4)nc4ccc(C(c5ccc(Cl)cc5)c5ccc(Cl)cc5)cc43)CC2)c1F` [Example 85], for which the EC50 in assay [1] is 17.4 nM; in assay [2], 8100 nM.
The corresponding values for `CC(c1ccc(C(=O)O)o1)N1CCC(n2c(C3CC3)nc3ccc(C(c4ccc(Cl)cc4)c4ccc(Cl)cc4)cc32)CC1` (stereo not drawn) [Example 86] are 15 nM and 10200 nM.
The corresponding values for `CC(c1cccc(C(=O)O)c1)N1CCC(n2c(C3CC3)nc3ccc(C(c4ccc(Cl)cc4)c4ccc(Cl)cc4)cc32)CC1` (stereo not drawn) [Example 87] are 9 nM and 9000 nM.

The record behind these values is US20190031618A1, “BENZIMIDAZOLE DERIVATIVES USEFUL AS CB-1 INVERSE AGONISTS” (Janssen Pharmaceutica NV, priority 2015, published 2019).
